Measured values from PMC5540273, “Progress towards a public chemogenomic set for protein kinases and a call for contributions” (PLoS ONE, 2017).

Experiments:
Experiment in all cases: KINOMEscan competition binding
ABL2 = ABL2 (Homo sapiens, UniProt P42684); details: read-out: %Inh ABL2
CDK4-cyclinD3 = CDK4-cyclinD3 (Homo sapiens, UniProt P11802); details: read-out: %Inh CDK4-cyclinD3
CDK5 = CDK5 (Homo sapiens, UniProt Q00535); details: read-out: %Inh CDK5
CDKL3 = CDKL3 (Homo sapiens, UniProt Q8IVW4); details: read-out: %Inh CDKL3
EPHA1 = target: T1, EPHA1 (Homo sapiens, UniProt P21709); details: read-out: %Inh EPHA1
T1 sequence (P21709 26-976): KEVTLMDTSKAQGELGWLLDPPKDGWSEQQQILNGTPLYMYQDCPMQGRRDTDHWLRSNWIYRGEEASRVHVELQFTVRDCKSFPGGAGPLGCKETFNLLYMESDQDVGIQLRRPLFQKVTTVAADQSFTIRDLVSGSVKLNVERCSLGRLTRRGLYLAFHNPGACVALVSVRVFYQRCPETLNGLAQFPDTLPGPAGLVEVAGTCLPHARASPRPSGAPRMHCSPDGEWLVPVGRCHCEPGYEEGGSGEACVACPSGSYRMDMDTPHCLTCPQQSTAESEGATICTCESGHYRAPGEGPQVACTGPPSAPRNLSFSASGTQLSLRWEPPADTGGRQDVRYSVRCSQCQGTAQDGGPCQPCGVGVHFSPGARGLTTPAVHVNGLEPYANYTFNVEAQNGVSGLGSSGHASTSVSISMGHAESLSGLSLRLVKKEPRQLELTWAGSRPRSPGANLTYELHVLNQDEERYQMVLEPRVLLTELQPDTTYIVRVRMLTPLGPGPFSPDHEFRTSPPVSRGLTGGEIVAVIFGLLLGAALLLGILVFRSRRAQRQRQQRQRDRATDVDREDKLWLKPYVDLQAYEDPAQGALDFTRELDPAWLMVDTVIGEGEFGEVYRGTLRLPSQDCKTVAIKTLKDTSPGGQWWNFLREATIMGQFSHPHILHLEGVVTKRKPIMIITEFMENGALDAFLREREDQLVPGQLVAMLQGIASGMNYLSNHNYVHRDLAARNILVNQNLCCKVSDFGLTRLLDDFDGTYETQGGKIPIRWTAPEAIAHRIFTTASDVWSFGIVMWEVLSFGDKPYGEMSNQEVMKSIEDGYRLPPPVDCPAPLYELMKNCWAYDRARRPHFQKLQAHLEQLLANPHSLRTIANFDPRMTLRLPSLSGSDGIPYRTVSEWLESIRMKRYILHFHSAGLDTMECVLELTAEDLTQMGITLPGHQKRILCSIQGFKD

EPHB1 = target: T2, EPHB1 (Homo sapiens, UniProt P54762); details: read-out: %Inh EPHB1
T2 sequence (P54762 18-984): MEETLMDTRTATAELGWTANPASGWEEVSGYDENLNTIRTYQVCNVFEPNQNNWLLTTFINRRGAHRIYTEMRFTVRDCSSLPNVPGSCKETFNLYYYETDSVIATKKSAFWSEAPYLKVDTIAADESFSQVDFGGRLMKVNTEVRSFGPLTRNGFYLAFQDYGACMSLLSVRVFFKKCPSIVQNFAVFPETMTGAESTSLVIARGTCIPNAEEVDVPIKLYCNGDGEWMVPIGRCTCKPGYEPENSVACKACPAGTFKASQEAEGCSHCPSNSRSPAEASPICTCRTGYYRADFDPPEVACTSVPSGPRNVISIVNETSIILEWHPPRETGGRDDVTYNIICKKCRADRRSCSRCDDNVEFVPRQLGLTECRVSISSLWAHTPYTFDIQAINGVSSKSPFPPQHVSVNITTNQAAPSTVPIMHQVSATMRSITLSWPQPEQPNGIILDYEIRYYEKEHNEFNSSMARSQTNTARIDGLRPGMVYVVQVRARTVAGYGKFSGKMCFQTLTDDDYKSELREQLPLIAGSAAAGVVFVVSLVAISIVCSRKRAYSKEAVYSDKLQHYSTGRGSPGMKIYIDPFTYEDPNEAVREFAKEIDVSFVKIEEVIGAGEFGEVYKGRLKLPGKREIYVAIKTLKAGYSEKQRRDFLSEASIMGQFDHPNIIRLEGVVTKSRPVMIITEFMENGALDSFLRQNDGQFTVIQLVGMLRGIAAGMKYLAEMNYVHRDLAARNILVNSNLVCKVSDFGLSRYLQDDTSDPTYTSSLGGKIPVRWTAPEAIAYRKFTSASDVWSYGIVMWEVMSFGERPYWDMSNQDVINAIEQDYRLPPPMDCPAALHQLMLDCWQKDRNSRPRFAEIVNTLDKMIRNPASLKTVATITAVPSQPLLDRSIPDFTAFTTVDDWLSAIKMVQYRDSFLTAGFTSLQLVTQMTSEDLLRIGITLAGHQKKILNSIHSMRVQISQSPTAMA

HIPK3 = HIPK3 (Homo sapiens, UniProt Q9H422); details: read-out: %Inh HIPK3
LKB1 = target: T3, LKB1 (Homo sapiens, UniProt Q15831); details: read-out: %Inh LKB1
T3 sequence (Q15831 1-433): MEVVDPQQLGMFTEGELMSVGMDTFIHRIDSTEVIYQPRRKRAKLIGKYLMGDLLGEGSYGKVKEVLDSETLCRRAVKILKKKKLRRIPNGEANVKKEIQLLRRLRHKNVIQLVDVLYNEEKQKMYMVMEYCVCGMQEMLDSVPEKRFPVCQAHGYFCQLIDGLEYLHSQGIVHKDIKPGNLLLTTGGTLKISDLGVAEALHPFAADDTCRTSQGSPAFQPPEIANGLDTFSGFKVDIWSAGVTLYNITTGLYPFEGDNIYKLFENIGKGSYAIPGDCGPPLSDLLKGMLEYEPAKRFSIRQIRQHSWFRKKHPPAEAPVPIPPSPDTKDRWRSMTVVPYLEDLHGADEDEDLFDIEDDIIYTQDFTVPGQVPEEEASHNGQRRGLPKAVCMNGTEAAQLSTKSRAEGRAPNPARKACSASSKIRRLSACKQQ

Chain of CDKL3 (Q8IVW4 whole entry): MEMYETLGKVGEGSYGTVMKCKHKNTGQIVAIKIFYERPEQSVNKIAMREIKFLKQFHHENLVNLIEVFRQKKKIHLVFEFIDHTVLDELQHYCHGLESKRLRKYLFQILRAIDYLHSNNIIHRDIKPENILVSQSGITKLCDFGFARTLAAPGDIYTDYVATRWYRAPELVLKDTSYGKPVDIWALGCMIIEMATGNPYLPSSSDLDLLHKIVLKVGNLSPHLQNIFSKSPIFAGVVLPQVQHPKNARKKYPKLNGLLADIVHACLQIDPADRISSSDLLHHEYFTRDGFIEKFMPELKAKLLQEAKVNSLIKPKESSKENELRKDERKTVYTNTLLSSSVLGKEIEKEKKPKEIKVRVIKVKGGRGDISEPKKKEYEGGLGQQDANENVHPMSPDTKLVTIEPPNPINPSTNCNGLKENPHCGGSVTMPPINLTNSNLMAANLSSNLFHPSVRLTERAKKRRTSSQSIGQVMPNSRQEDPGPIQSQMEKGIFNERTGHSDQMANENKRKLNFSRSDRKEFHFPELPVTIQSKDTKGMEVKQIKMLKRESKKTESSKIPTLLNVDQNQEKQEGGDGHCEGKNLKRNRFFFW
Chain of CDK4-cyclinD3 (P11802 whole entry): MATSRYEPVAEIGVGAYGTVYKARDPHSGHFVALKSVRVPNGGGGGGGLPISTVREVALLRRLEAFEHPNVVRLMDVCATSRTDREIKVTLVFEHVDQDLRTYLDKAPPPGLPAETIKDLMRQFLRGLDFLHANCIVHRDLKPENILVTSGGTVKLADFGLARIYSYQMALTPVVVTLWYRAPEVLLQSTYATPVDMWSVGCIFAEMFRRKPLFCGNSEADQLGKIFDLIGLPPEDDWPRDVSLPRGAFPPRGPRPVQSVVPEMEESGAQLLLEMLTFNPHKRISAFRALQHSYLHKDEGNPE
Chain of CDK4-cyclinD3 (P30281 whole entry partner): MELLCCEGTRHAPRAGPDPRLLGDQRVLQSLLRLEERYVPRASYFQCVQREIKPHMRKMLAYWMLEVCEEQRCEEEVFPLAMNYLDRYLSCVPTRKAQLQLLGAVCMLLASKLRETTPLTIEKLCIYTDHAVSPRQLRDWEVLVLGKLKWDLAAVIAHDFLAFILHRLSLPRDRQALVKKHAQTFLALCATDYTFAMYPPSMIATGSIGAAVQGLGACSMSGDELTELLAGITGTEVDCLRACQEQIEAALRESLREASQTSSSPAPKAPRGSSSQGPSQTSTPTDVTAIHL
Chain of CDK5 (Q00535 whole entry): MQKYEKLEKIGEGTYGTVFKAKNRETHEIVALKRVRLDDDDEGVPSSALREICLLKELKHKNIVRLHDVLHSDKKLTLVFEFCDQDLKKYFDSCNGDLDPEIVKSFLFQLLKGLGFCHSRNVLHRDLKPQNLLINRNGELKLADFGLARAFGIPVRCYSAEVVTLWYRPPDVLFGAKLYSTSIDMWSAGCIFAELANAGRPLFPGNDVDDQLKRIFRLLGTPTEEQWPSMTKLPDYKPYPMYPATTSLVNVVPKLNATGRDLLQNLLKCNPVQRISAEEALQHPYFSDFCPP
Chain of ABL2 (P42684 whole entry): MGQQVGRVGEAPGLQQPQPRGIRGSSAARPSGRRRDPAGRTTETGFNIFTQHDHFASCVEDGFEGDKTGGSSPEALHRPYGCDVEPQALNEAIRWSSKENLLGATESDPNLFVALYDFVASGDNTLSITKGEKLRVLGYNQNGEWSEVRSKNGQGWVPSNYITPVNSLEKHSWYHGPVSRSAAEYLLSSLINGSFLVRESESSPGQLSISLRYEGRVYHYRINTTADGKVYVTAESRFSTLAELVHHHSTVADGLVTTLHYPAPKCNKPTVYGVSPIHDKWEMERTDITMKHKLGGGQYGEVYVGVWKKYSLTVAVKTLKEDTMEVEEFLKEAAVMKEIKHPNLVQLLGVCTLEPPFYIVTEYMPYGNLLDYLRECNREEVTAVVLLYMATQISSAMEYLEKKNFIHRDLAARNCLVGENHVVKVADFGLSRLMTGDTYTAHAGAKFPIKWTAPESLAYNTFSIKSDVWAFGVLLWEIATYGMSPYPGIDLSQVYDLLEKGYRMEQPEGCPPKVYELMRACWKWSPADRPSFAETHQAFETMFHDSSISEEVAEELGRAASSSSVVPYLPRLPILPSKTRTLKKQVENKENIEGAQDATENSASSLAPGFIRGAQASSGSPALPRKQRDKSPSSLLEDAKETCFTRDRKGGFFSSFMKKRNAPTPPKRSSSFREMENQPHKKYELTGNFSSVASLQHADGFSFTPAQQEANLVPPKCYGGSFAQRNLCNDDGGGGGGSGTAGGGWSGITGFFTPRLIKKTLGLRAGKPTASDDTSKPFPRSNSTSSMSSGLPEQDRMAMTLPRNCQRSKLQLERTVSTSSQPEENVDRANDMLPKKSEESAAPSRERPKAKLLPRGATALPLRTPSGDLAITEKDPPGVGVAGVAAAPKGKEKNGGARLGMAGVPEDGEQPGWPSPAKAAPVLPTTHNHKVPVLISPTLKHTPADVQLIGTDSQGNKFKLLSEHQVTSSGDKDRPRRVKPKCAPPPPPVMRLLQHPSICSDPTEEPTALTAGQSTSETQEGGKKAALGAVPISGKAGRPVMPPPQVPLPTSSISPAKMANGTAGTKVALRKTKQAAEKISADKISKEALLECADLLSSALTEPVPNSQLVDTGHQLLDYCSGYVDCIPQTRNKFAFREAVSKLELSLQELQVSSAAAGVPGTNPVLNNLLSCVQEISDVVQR
Chain of HIPK3 (Q9H422 whole entry): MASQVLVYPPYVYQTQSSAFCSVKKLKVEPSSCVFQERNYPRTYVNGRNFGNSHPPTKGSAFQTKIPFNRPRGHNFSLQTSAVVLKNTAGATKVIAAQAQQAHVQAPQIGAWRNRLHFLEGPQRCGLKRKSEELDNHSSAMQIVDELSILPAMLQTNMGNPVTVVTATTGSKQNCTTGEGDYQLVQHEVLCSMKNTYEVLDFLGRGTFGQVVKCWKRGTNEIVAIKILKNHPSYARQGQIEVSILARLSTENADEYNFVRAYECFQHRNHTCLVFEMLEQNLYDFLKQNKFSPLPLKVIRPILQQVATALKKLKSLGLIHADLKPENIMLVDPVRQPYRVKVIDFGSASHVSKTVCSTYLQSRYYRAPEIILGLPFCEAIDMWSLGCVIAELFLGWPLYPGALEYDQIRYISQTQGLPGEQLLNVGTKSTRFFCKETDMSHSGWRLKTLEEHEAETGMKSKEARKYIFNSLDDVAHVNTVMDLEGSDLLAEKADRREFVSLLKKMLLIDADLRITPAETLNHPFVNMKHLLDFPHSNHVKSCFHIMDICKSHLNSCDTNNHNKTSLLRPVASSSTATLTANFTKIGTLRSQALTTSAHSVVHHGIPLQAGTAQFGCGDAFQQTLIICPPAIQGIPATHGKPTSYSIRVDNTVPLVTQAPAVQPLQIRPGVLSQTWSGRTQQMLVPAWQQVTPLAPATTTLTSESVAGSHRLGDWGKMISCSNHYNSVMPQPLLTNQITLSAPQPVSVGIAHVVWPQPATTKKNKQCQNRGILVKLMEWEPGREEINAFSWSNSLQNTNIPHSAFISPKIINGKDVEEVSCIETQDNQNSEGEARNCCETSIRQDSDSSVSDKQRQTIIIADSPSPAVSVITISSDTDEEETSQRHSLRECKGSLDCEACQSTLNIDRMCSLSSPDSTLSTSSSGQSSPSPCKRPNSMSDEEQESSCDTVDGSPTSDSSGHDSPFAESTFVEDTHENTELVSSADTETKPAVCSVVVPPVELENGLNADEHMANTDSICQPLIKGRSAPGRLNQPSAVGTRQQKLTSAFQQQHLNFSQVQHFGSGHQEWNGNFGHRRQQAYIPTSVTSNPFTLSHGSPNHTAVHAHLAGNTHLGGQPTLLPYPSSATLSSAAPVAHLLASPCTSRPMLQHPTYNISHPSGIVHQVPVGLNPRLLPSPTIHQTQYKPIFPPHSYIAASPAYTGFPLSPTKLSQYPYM

Compound	inhibition at 1 µM (ABL2)	inhibition at 1 µM (CDK4-cyclinD3)	inhibition at 1 µM (CDK5)	inhibition at 1 µM (CDKL3)	inhibition at 1 µM (EPHA1)	inhibition at 1 µM (EPHB1)	inhibition at 1 µM (HIPK3)	inhibition at 1 µM (LKB1)
Cn1cc(-c2cnc(N)c3c(-c4ccc5c(c4)CCN5C(=O)Cc4ccccc4)csc23)cn1 [UNC10225012A]	81%	0%	2%	4%	11%	6%	7%	0%
CS(=O)(=O)Cc1ccc(Nc2nccc(-c3c(-c4cccc(NC(=O)C5CCCCC5)c4)nn4ncccc34)n2)cc1 [UNC10225159A]	5%	18%	4%	0%	6%	2%	23%	0%
Cc1ccc(NC(=O)Nc2cccc(C(F)(F)F)c2)cc1 [UNC10225187A]	3%	0%	0%	4%	17%	5%	0%	16%
COc1cccc(OC)c1C(=O)Nc1cccc(-c2nn3ccccc3c2-c2ccnc(Nc3cccc(F)c3)n2)c1 [UNC10225310A]	100%	7%	21%	3%	4%	100%	0%	6%
O=c1cc(N2CCOCC2)nc2n(Cc3cccc(Cl)c3Cl)c(C3CC3)nn12 [UNC10225469A]	5%	0%	7%	0%	7%	0%	16%	15%
